Data set [1] concerns the target T1, Human TGFβR-1 (Homo sapiens, UniProt P36897).
T1 construct: purchased Promega V4092
T1 sequence (P36897 34-503): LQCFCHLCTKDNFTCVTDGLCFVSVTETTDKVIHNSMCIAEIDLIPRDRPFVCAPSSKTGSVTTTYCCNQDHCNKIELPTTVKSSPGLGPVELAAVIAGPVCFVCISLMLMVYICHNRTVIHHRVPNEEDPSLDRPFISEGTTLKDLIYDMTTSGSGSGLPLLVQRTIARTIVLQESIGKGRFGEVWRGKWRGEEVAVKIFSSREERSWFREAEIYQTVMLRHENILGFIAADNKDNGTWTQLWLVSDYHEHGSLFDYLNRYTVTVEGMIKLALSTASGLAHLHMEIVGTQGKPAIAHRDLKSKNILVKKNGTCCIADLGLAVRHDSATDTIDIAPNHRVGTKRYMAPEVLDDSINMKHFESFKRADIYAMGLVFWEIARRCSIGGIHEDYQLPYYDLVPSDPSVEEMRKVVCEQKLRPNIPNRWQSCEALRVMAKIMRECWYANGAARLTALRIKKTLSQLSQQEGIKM
The data set is described as follows: In vitro enzyme assay: inhibition of TGFβR-1 (ADP-Glo kinase assay). Particulars: TGFβR-1 kinase 50 ng/well, 50 μM ATP, 120 min RT. The data set is classed as biochemical. From the text:
In the present application are used the following abbreviations, with the corresponding definitions: • AcOH: Acetic Acid • ACVR2B: activin A receptor, type IIB • ALKn: activin receptor-like kinase n • ATP: adenosin triphosphate • Boc2O: tert-butyl dicarbonate • Boc: tert-Butoxycarbonyl • Clint: Intrinsic clearance • DIPEA: N,N-Diisopropylethylamine • DMA: Dimethylacetamide • DMAP: 4-Dimethylaminopyridine • DMF: N,N-Dimethylformamide • DMSO: Dimethyl sulfoxide • EDCl: N-(3-Dimethylaminopropyl)-N′-ethylcarbodiimide) • Et3N: Triethylamine • EtOAc: Ethyl acetate • EtOH: ethanol • FBS: Fetal bovine serum • H: hour • HATU: 1-[Bis(dimethylamino)methylene]-1H-1,2,3-triazolo[4,5-b]pyridinium 3-oxide hexafluorophosphate • HOBT: Hydroxybenzotriazole • HPLC: High-performance liquid chromatography • ^1H-NMR: Proton nuclear magnetic resonance • K2EDTA: ethylenediaminetetracetic acid dipotassium salt • LC: Liquid chromatography • LiHMDS: Lithium bis(trimethylsilyl)amide • LLOQ: lower limit of quantification • MeCN: Acetonitrile • MeOH: Methanol • Min: minutes • MS: Mass spectroscopy • MTBE: Methyl tert-butyl ether • NBS: N-Bromosuccinimide • NaCMC: Sodium carboxymethyl cellulose • Rt: retention time • RT: room temperature • Sem: 2-(Trimethylsilyl)ethoxymethyl • TGFβ: transforming growth factor-β • THF: Tetrahydrofuran • THF:EtOH: Tetrahydrofuran:ethanol • UPLC: ultra high-performance liquid chromatography • UV: Ultraviolet Pharmacological Activity In Vitro Enzyme Assay: Inhibition of TGFβR-1 Human TGFβR-1 inhibition experiments were carried out in a white 384-microplate low flange (Corning 3572) with ADP-Glo kinase Assay Kit (Promega V9101) and TGFβR-1 Kinase Enzyme System (Promega V4092). Test compounds and standard Galunisertib (Cayman 15312), 50 ng/well TGFβR-1 kinase and 50 μM ATP were added in a final volume of 10 μL/well, using Reaction buffer supplied by kit as assay buffer. The reaction mixture was incubated in gentle shaking for 120 min at RT, after incubation of 10 μL of ADP-Glo Reagent was added and incubated in gentle shaking for 40 min at RT. 20 μL of Kinase Detection Reagent was added and plate was incubated in gentle shaking for 30 min at RT. Luminescence (1000 ms) was measured in Perkin Elmer EnSpire Multimode plate reader. Results

A short description of data set [2]: Determination of plasma stability in human plasma. The data set is classed as in vitro ADME. Particulars: 10 μM, 37° C. The procedure: Determination of Plasma Stability of Some Compounds
Human plasma pooled from healthy donors extracted in citrate tubes was employed in the assay. Briefly, plates containing 10 μM compounds in plasma (total volume: 50 μL) were incubated at 37° C. at the different times (0, 30, 120 and 360 min). Then 100 μl Acetonitrile were added for precipitating plasma protein, and the plate was centrifuged at 46000 g for 60 min at 5° C. Supernatant was taken and analysed by UPLC/MS/MS for sample quantification. Stationary phase: Reverse phase Acquity UPLC® BEH C18 1.7 μm (2.1 mm×50 mm) (Waters). Mobile phase: 0.1% Formic acid water/0.1% formic acid in acetonitrile.
Flow: 0.6 ml/min. The chromatographic equipment employed was an UPL QSM Waters Acquity. Compound concentrations were calculated from the MS peak areas.

In data set [3] the target is T2, ALK-5 (Homo sapiens, UniProt P36897).
T2 construct: endogenous in cells; host or cells: A549
T2 sequence (P36897 34-503): T1 sequence (P36897 34-503)
Description: Determination of the intracellular TGF-beta kinase activity (ALK-5), AlphaLISA SureFire p-SMAD3 in A549 cells. Type of data set: cell-based. Particulars: A549 cell line, TGF-β2 activated, p-SMAD3(Ser423/425). The method, then:
Determination of the Intracellular TGF-Beta Kinase Activity (ALK-5)
The experiments were carried out in A549 cell line. 30000 cells were seeded in 200 μl of culture medium (Sigma D6046) supplemented with L-Glutamine (Sigma G7513), Penicillin/Streptomycin (Invitrogen 11058) and FBS (Sigma F9665) on a 96 wells microplate (Becton Dickinson 353072). After 16 hours medium was changed to serum free medium. Galunisertib, as inhibitor ligand (Cayman CAY-15312) and recombinant Human TGF-β2 (R&D Systems 302-B2-002) as activator of the ALK-5, were added in their corresponding wells and incubated following the instructions of the Alphascreen AlphaLISA@SureFire® Ultra™ p-SMAD3(Ser423/425) Kit (Perkin Elmer ALSU-PSM3-A500).

The structures appear in SMILES notation.

By IC50 is commonly meant the concentration needed to halve the response being measured. Low readings indicate inhibition by little substance, high ones a need for much substance.

For the compound `Cc1cccc(-c2nn(CC(=O)Nc3cc(F)cc(C(=O)OCCN(C)C)c3)cc2-c2ccnc3ccccc23)n1` [Example 1, 2-(dimethylamino)ethyl 3-fluoro-5-(2-(3-(6-methylpyridin-2-yl)-4-(quinolin-4-yl)-1H-pyrazol-1-yl)acetamido)benzoate], the IC50 in data set [1] was below 100 nM. Moreover, in data set [2], the “remaining percentage 0 min” value is recorded as 100%, the “remaining percentage 30 min” value is reported as 0%, the “remaining percentage 120 min” value is recorded as 0% and the “remaining percentage 360 min” value was found to be 0%. The compound also yielded a half-maximal inhibitory concentration (IC50) in data set [3] below 1000 nM.

The compound `Cc1cccc(-c2nn(CC(=O)Nc3ccc(C(=O)OCCN(C)C)nc3)cc2-c2ccnc3ccccc23)n1` [Example 5, 2-(dimethylamino)ethyl 5-(2-(3-(6-methylpyridin-2-yl)-4-(quinolin-4-yl)-1H-pyrazol-1-yl)acetamido)picolinate] registered an IC50 in data set [1] below 100 nM. Moreover, in data set [2], the “remaining percentage 0 min” value was determined as 100%, the “remaining percentage 30 min” value was 10%, the “remaining percentage 120 min” value is 0% and the “remaining percentage 360 min” value is listed as 0%. The same compound registered an IC50 in data set [3] above 1000 nM.

As to `Cc1cccc(-c2nn(CC(=O)Nc3cc(F)cc(C(=O)OCCN4CCN(C)CC4)c3)cc2-c2ccnc3ccccc23)n1` [Example 6, 2-(4-methylpiperazin-1-yl)ethyl 3-fluoro-5-(2-(3-(6-methylpyridin-2-yl)-4-(quinolin-4-yl)-1H-pyrazol-1-yl)acetamido)benzoate], the IC50 in data set [1] is 100 to 250 nM; in data set [3] it was below 1000 nM.

The compound `CCN(CC)CCOC(=O)c1cc(F)cc(NC(=O)Cn2cc(-c3ccnc4ccccc34)c(-c3cccc(C)n3)n2)c1` [Example 7, 2-(diethylamino)ethyl 3-fluoro-5-(2-(3-(6-methylpyridin-2-yl)-4-(quinolin-4-yl)-1H-pyrazol-1-yl)acetamido)benzoate] had an IC50 in data set [1] of 100 to 250 nM. In addition, in data set [2], the “remaining percentage 0 min” value was 100%, the “remaining percentage 30 min” value is 16.0%, the “remaining percentage 120 min” value amounted to 3.3% and the “remaining percentage 360 min” value is reported as 0.1%. The same compound had an IC50 in data set [3] below 1000 nM.

In the case of `Cc1cccc(-c2nn(CC(=O)Nc3cc(F)cc(C(=O)OCC4CCN(C)CC4)c3)cc2-c2ccnc3ccccc23)n1` [Example 9, (1-methylpiperidin-4-yl)methyl 3-fluoro-5-(2-(3-(6-methylpyridin-2-yl)-4-(quinolin-4-yl)-1H-pyrazol-1-yl)acetamido)benzoate], the IC50 in data set [1] was below 100 nM. For the same compound, in data set [2], the “remaining percentage 0 min” value is 100%, the “remaining percentage 30 min” value is given as 16.6%, the “remaining percentage 120 min” value was 3.1% and the “remaining percentage 360 min” value was 0%. For the same compound, in data set [3], the IC50 is below 1000 nM.

Take `CNCCOC(=O)c1cc(F)cc(NC(=O)Cn2cc(-c3ccnc4ccccc34)c(-c3cccc(C)n3)n2)c1` [Example 15, 2-(methylamino)ethyl 3-fluoro-5-(2-(3-(6-methylpyridin-2-yl)-4-(quinolin-4-yl)-1H-pyrazol-1-yl)acetamido)benzoate]: the IC50 is below 100 nM in data set [1] and above 1000 nM in data set [3].

The compound `Cc1cccc(-c2nn(CC(=O)Nc3cc(F)cc(C(=O)OCCN4CCNCC4)c3)cc2-c2ccnc3ccccc23)n1` [Example 19, 2-(piperazin-1-yl)ethyl 3-fluoro-5-(2-(3-(6-methylpyridin-2-yl)-4-(quinolin-4-yl)-1H-pyrazol-1-yl)acetamido)benzoate] returned an IC50 in data set [1] below 100 nM. In addition, in data set [2], the “remaining percentage 0 min” value was 100%, the “remaining percentage 30 min” value came to 1.9%, the “remaining percentage 120 min” value is 0.3% and the “remaining percentage 360 min” value turned out to be 0%. Besides, the IC50 in data set [3] was below 1000 nM.

In data set [1], `Cc1cccc(-c2nn(CC(=O)Nc3cc(F)cc(C(=O)OC4CCNCC4)c3)cc2-c2ccnc3ccccc23)n1` [Example 21, piperidin-4-yl 3-fluoro-5-(2-(3-(6-methylpyridin-2-yl)-4-(quinolin-4-yl)-1H-pyrazol-1-yl)acetamido)benzoate] returned an IC50 below 100 nM. For the same compound, in data set [2], the “remaining percentage 0 min” value was 100%, the “remaining percentage 30 min” value stood at 74.3%, the “remaining percentage 120 min” value was 34.2% and the “remaining percentage 360 min” value is reported as 6.3%. Moreover, the IC50 in data set [3] was above 1000 nM.

(Values after patent US12577230B2, “2-(3-pyridin-2-yl-4-quinolin-4-yl-pyrazol-1-yl)- acetamide derivatives as inhibitors of transforming growth factor-beta receptor I/ALK5” (AGOMAB SPAIN S.L.U., priority 2020, dated 2026).)
